Measurements reported in BindingDB's records for doi:10.1021/jm0011171 (Stockholm University, 2001).

Each compound was assayed against T1, Dimer of Gag-Pol polyprotein [489-587] (Human immunodeficiency virus 1, UniProt P12497) (assay: Protease Inhibition Assay). Details: pH 5; 30 °C.
T1 construct: 489-587
Experimental: A fluorimetric assay was used to determine the effects of the inhibitors on HIV-1 protease. This assay used an internally quenched fluorescent peptide substrate. The measurements were performed in 96-well plates with a Fluoroscan plate reader. Excitation and emission wavelengths were 355 nm and 500 nm, respectively.

Point of comparison: `O=C(N[C@H]1c2ccccc2C[C@H]1O)[C@H](CCc1ccccc1)[C@H](O)[C@H](O)[C@@H](CCc1ccccc1)C(=O)N[C@H]1c2ccccc2C[C@H]1O` [N1,N6 -Bis[(2R)-hydroxy-(1S)-indanyl]-(2R,3R,4S,5R)-3,4-dihydroxy-2,5-bis(2-phenylethyl)hexanediamide], Ki 28 nM. Against it:
- O=C(N[C@H]1c2ccccc2C[C@H]1O)[C@H](CCc1ccccc1)[C@@H](O)[C@H](O)[C@@H](CCc1ccccc1)C(=O)N[C@H]1c2ccccc2C[C@H]1O [(2R,3R,4R,5R)-3,4-dihydroxy-N,N'-bis[(1S,2R)-2-hydroxy-2,3-dihydro-1H-inden-1-yl]-2,5-bis(2-phenylethyl)hexanediamide] — 25-fold lower, 1.1 nM
- O=C(N[C@H]1c2ccccc2C[C@H]1O)[C@H](OCc1ccccc1)[C@H](O)[C@@H](O)[C@@H](OCc1ccccc1)C(=O)N[C@H]1c2ccccc2C[C@H]1O [symmetric/asymmetric inhibitor 2] — 47-fold lower, 0.6 nM
